Consider 4 molecules from BindingDB's records for doi:10.1038/nchembio.137 (University of Texas Southwestern Medical Center, 2009).

This experiment addresses T1, Protein Wnt-2 (Mus musculus, UniProt P21552).
T1 sequence (P21552 whole entry): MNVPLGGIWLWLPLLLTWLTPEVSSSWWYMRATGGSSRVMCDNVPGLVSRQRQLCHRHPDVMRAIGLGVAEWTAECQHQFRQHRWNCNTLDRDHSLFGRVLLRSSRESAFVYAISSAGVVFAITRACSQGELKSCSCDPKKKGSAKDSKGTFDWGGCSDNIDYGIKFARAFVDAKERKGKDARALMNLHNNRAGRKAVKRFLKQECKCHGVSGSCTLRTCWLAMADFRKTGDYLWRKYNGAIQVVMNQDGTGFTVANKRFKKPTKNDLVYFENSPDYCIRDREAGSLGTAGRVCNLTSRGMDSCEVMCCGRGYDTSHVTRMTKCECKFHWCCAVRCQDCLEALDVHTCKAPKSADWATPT
The experiment in a line: Wnt Inhibition Assay. The note with it: pH 7.4; 4 °C. The text has this:
Inhibition assay of Wnt response treated with exogenously supplied of Wnt protein ('exogenous Wnt' test)
For orientation: IC50 means the concentration that gives 50% inhibition. The molecule `O=C(Nc1cccc2cccnc12)c1ccc(-n2c(O)c3c(c2O)[C@H]2C=C[C@@H]3C2)cc1` yielded an IC50 of 58 nM.
The result for `Cc1ccnc2c(NC(=O)c3ccc(-n4c(O)c5c(c4O)[C@H]4C=C[C@@H]5C4)cc3)cccc12` [CID25093486] reads 27 nM.
The result for `Cc1cccc2nc(Cn3c(=O)n(C[C@H]4CC[C@H](C(=O)NCc5ccccc5)CC4)c(=O)c4ccccc43)cc(=O)n12` [CID15995771] reads 40 nM; that for `N#Cc1ccccc1Cn1c(=O)n(C[C@H]2CC[C@H](C(=O)NCc3ccccc3)CC2)c(=O)c2ccccc21` [CID15993586], 25 nM.
